In patent publication US20170291875A1, “QUINOLONES AS INHIBITORS OF CLASS IV BROMODOMAIN PROTEINS” (UCL BUSINESS PLC, priority 2014, published 2017):

Assays:
[1] = target: T1, BRD7 (Homo sapiens, UniProt Q9NPI1); experiment: BROMOscan bromodomain competitive binding assay (DiscoveRx), BRD7; details: BROMOscan platform, n = 2
T1 construct: purchased DiscoveRx (BROMOscan platform); host or cells: E. coli host derived from BL21 (T7 phage)
T1 sequence (Q9NPI1 131-235 limits assumed): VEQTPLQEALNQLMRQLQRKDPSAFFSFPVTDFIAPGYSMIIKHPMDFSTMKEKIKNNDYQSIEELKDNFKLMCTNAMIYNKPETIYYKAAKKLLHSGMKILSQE
Experimental: (§1) Compounds were tested using the commercially available BROMOscan™ Platform (DiscoveRx): http://www.discoverx.com/technologies-platforms/competitive-binding-technology/bromoscan-technology-platform/bromoscan-assay-process.
Bromodomain assays. T7 phage strains displaying bromodomains were grown in parallel in 24-well blocks in an E. coli host derived from the BL21 strain. E. coli were grown to log-phase and infected with T7 phage from a frozen stock (multiplicity of infection=0.4) and incubated with shaking at 32° C. until lysis (90-150 minutes). The lysates were centrifuged (5,000×g) and filtered (0.2 μm) to remove cell debris. […] The liganded beads were blocked with excess biotin and washed with blocking buffer (SeaBlock (Pierce), 1% BSA, 0.05% Tween 20, 1 mM DTT) to remove unbound ligand and to reduce non-specific phage binding. […] The bromodomain concentration in the eluates was measured by qPCR.
An 11-point 3-fold serial dilution of each test compound was prepared in 100% DMSO at 1000× final test concentration. […] Most Kds were determined using a compound top concentration=10,000 nM.
(§2) Binding constants (Kds) were calculated with a standard dose-response curve using the Hill equation: […]

[2] = target: T2, BRD1 (Homo sapiens, UniProt O95696); experiment: BROMOscan bromodomain competitive binding assay (DiscoveRx), BRD1; details: BROMOscan platform, n = 2
T2 construct: purchased DiscoveRx (BROMOscan platform); host or cells: E. coli host derived from BL21 (T7 phage)
T2 sequence (O95696 562-666 limits assumed): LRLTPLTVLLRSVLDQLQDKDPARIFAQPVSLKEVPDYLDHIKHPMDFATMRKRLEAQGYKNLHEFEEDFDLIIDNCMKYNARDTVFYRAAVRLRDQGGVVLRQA
Experimental: as §1
(§3) Bromodomain assays. T7 phage strains displaying bromodomains were grown in parallel in 24-well blocks in an E. coli host derived from the BL21 strain. E. coli were grown to log-phase and infected with T7 phage from a frozen stock (multiplicity of infection=0.4) and incubated with shaking at 32° C. until lysis (90-150 minutes). The lysates were centrifuged (5,000×g) and filtered (0.2 μm) to remove cell debris. […] The liganded beads were blocked with excess biotin and washed with blocking buffer (SeaBlock (Pierce), 1% BSA, 0.05% Tween 20, 1 mM DTT) to remove unbound ligand and to reduce non-specific phage binding. […] Test compounds were prepared as 1000× stocks in 100% DMSO and subsequently diluted 1:10 in monoethylene glycol (MEG) to create stocks at 100× the screening concentration (resulting stock solution is 10% DMSO/90% MEG). The compounds were then diluted directly into the assays such that the final concentration of DMSO and MEG were 0.1% and 0.9%, respectively. All reactions were performed in polystyrene 96-well plates in a final volume of 0.135 ml. […] The bromodomain concentration in the eluates was measured by qPCR.
(§4) An 11-point 3-fold serial dilution of each test compound was prepared in 100% DMSO at 1000× final test concentration. This serial is then diluted to 100× in ethylene glycol and subsequently diluted to 1× in the assay (final DMSO concentration=0.1%, Ethylene glycol concentration=0.9%). Most Kds were determined using a compound top concentration=10,000 nM.
as §2
(§5) The Hill Slope was set to −1. Curves were fitted using a non-linear least square fit with the Levenberg-Marquardt algorithm.
(§6) BROMOscan™ uses the same assay technology as KINOMEscan™. For a more detailed description of this assay technology, see Fabian et al.12

[3] = target: T3, BRPF1B (Homo sapiens, UniProt P55201); experiment: BROMOscan bromodomain competitive binding assay (DiscoveRx), BRPF1B; details: BROMOscan platform, n = 2 unless cell says n = 4
T3 construct: purchased DiscoveRx (BROMOscan platform); host or cells: E. coli host derived from BL21 (T7 phage)
T3 sequence (P55201 628-732 limits assumed): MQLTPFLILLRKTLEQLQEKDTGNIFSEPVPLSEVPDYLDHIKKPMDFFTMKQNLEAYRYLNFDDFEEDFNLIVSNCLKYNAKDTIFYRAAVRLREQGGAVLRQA
Experimental: as §1, §3, §4, §2, §5, §6

[4] = target: T4, BRD9 (Homo sapiens, UniProt Q9H8M2); experiment: BROMOscan bromodomain competitive binding assay (DiscoveRx), BRD9; details: BROMOscan platform, n = 2
T4 construct: purchased DiscoveRx (BROMOscan platform); host or cells: E. coli host derived from BL21 (T7 phage)
T4 sequence (Q9H8M2 136-240 limits assumed): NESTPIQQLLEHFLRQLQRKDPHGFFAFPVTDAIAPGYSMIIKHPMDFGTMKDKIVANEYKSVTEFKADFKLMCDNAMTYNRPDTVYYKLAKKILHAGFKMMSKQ
Experimental: as §1, §3, §4, §2, §5, §6

[5] = target: T5, BRPF3 (Homo sapiens, UniProt Q9ULD4); experiment: BROMOscan bromodomain competitive binding assay (DiscoveRx), BRPF3; details: BROMOscan platform, n = 2
T5 construct: purchased DiscoveRx (BROMOscan platform); host or cells: E. coli host derived from BL21 (T7 phage)
T5 sequence (Q9ULD4 589-693 limits assumed): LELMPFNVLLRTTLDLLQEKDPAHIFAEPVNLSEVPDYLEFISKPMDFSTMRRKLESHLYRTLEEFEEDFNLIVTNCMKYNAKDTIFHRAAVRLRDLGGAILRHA
Experimental: as §1, §3, §4, §2, §5, §6

## Cc1cc2cc(NS(=O)(=O)c3ccc(C#N)cc3)ccc2n(C)c1=O [Compound 19, 4-cyano-N-(1,3-dimethyl-2-oxo-1,2-dihydroquinolin-6-yl)benzenesulfonamide]
[1]
  Kd: 82 nM
[2]
  Kd: 48 nM
[3]
  Kd: 7.9 nM
[4]
  Kd: 310 nM
[5]
  Kd: 260 nM

## COc1cc2c(cc1NS(=O)(=O)c1ccc(C#N)cc1OC)cc(C)c(=O)n2C [Compound 27, 4-cyano-2-methoxy-N-(7-methoxy-1,3-dimethyl-2-oxo-1,2-dihydroquinolin-6-yl)benzenesulfonamide]
[2]
  Kd: 80 nM
[3]
  Kd: 12 nM
[4]
  Kd: 170 nM
[5]
  Kd: 190 nM

## COc1cc2c(cc1NS(=O)(=O)c1ccc(C#N)cc1)c(C)cc(=O)n2C [Compound 33, 4-cyano-N-(7-methoxy-1,4-dimethyl-2-oxo-1,2-dihydroquinolin-6-yl)benzenesulfonamide]
[1]
  Kd: 21000 nM
[2]
  Kd: 1800 nM
[3]
  Kd: 60 nM
[4]
  Kd: 890 nM
[5]
  Kd: 9300 nM
